According to patent publication US4196217A, “Hydroxylated amines with bacteriostatic activity” (priority 1978, dated 1980):
Values after ≈ are worked out from the molar mass of the structure shown. Values joined by “and” are separate entries in the source; they are usually repeats but may differ in a detail not shown here. Identical values can stand only once. Counter-ions that a name gives are not always drawn. Like-named read-outs stand apart in the source and are kept apart here.

How the values were obtained:
[1] = test system: Staphyloccus aureus; assay: bacteriostatic activity (MIC), Staphylococcus aureus; assay type: cell-based
Protocol: (§1) The medium containing the solution to be tested is inoculated in the form of three single striae with a 10^-5 times dilution of a bacterial culture aged 16 to 18 hours grown in salted peptone broth at a temperature of 37° C.
(§2) After inoculation, the media are stored at 37° C. for 48 hours, after which the bacterial growth is inspected. The MIC (minimum inhibiting concentrations) are expressed in micrograms of pure product per cubic centimeter of gelose medium required for inhibiting the culture (μg/cc). The control substance used is benzalconium chloride.
(§3) Tests were also carried out to determine the bacteriostatic activity of other compounds according to the invention by the method described above and in comparison with known substances, in particular with benzalconium chloride (compound T in the Tables).

[2] = test system: Bacillus subtilis; assay: bacteriostatic activity (MIC), Bacillus subtilis; assay type: cell-based
Protocol: as §1, §2, §3

[3] = test system: Escherichia coli; assay: bacteriostatic activity (MIC), Escherichia coli; assay type: cell-based
Protocol: as §1, §2, §3

[4] = test system: Pseudomonas aeruginosa; assay: bacteriostatic activity (MIC), Pseudomonas aeruginosa; assay type: cell-based
Protocol: as §1, §2, §3

[5] = solubility
[6] = test system: Pneumobacille; assay: bacteriostatic activity (MIC), Pneumobacille; assay type: cell-based; settings: Table I, 37° C., 48 hours
Protocol: (§4) The medium containing the solution to be tested is inoculated in the form of three single striae with a 10^-5 times dilution of a bacterial culture aged 16 to 18 hours grown in salted peptone broth at a temperature of 37° C. After inoculation, the media are stored at 37° C. for 48 hours, after which the bacterial growth is inspected. The MIC (minimum inhibiting concentrations) are expressed in micrograms of pure product per cubic centimeter of gelose medium required for inhibiting the culture (μg/cc). The control substance used is benzalconium chloride.

[7] = test system: Serratia; assay: bacteriostatic activity (MIC), Serratia; assay type: cell-based; settings: Table I, 37° C., 48 hours
Protocol: as §4

[8] = test system: Proteus vulgaris; assay: bacteriostatic activity (MIC), Proteus vulgaris; assay type: cell-based; settings: Table I, 37° C., 48 hours
Protocol: as §4

[9] = test system: Enterbacter cloacae; assay: bacteriostatic activity (MIC), Enterbacter cloacae; assay type: cell-based; settings: Table I, 37° C., 48 hours
Protocol: as §4

[10] = test system: Moraxella glucidolytica; assay: bacteriostatic activity (MIC), Moraxella glucidolytica; assay type: cell-based; settings: Table I, 37° C., 48 hours
Protocol: as §4

[11] = Staphylococcus aureus, 48 h, Table VI, bacteriostase containing 20% of serum, read-out: M.I.C.
[12] = Staphylococcus aureus, 48 h, Table VI, bacteriostase without serum, read-out: M.I.C.
[13] = Bacillus subtilis, 48 h, Table VI, bacteriostase containing 20% of serum, read-out: M.I.C.
[14] = Bacillus subtilis, 48 h, Table VI, bacteriostase without serum, read-out: M.I.C.
[15] = Escherichia coli, 48 h, Table VI, bacteriostase containing 20% of serum, read-out: M.I.C.
[16] = Escherichia coli, 48 h, Table VI, bacteriostase without serum, read-out: M.I.C.
[17] = Pseudomonas aeruginosa, 48 h, Table VI, bacteriostase containing 20% of serum, read-out: M.I.C.
[18] = Pseudomonas aeruginosa, 48 h, Table VI, bacteriostase without serum, read-out: M.I.C.
[19] = Table I, with 20% of serum, 37° C., 48 hours
[20] = Table I, without serum, 37° C., 48 hours
[21] = Table VI, bacteriostase containing 20% of serum
[22] = Table VI, bacteriostase without serum

## CCCCCCCCCCCCOCC(O)CN.Cl (stereo not shown) [Compound 2, 3-dodecyloxy-2-hydroxy-1-aminopropane hydrochloride]
[1]; [11]
  MIC: 75 µg/mL
[1]; [12]
  MIC: 10 µg/mL
[2]; [13]
  MIC: 30 µg/mL
[2]; [14]
  MIC: 5 µg/mL
[3]; [15]
  MIC: 100 µg/mL
[3]; [16]
  MIC: 20 µg/mL
[4]; [17]
  MIC: 1200 µg/mL
[4]; [18]
  MIC: 800 µg/mL

## Br.CCCCCCCCCCOCC(O)CN (stereo not shown) [Compound 3, 3-decyloxy-2-hydroxy-1-aminopropane hydrobromide]
[1]; [11]
  MIC: 75 µg/mL
[1]; [12]
  MIC: 30 µg/mL
[2]; [13]
  MIC: 50 µg/mL
[2]; [14]
  MIC: 25 µg/mL
[3]; [15]
  MIC: 60 µg/mL
[3]; [16]
  MIC: 30 µg/mL
[4]; [17]
  MIC: 250 µg/mL
[4]; [18]
  MIC: 100 µg/mL

## CCCCCCCCC(O)CN (stereo not shown) [Compound 4]
[1]; [11]
  MIC: 150 µg/mL (≈ 866 µM)
[1]; [12]
  MIC: 70 µg/mL (≈ 404 µM)
[2]; [13]
  MIC: 75 µg/mL (≈ 433 µM)
[2]; [14]
  MIC: 20 µg/mL (≈ 115 µM)
[3]; [15]
  MIC: 200 µg/mL (≈ 1150 µM)
[3]; [16]
  MIC: 125 µg/mL (≈ 721 µM)
[4]; [17]
  MIC: 500 µg/mL (≈ 2890 µM)
[4]; [18]
  MIC: 400 µg/mL (≈ 2310 µM)

## CCCCCCCCCCOCC(O)C[N+](C)(C)C (stereo not shown) [Compound 5, 3-decyloxy-2-hydroxy-N,N,N-trimethyl-1-ammonium chloride]
[1]; [11]
  MIC: 50 µg/mL
[1]; [12]
  MIC: 25 µg/mL
[2]; [13]
  MIC: 40 µg/mL
[2]; [14]
  MIC: 25 µg/mL
[3]; [15]
  MIC: 200 µg/mL
[3]; [16]
  MIC: 125 µg/mL
[4]; [17]
  MIC: 750 µg/mL
[4]; [18]
  MIC: 600 µg/mL
[5]
  solubility in water: soluble in water

## CCCCCCCCOCC(O)CN.Cl (stereo not shown) [Compound 6, 3-octyloxy-2-hydroxy-1-aminopropane hydrochloride]
[1]; [11]
  MIC: > 250 µg/mL
[1]; [12]
  MIC: > 150 µg/mL
[2]; [13]
  MIC: 200 µg/mL
[2]; [14]
  MIC: 150 µg/mL
[3]; [15]
  MIC: 300 µg/mL
[3]; [16]
  MIC: 150 µg/mL
[4]; [17]
  MIC: 500 µg/mL
[4]; [18]
  MIC: 300 µg/mL

## CCCCCCCCCC(O)CN (stereo not shown) [Compound 7]
[1]; [11]
  MIC: 150 µg/mL (≈ 801 µM)
[1]; [12]
  MIC: 75 µg/mL (≈ 400 µM)
[2]; [13]
  MIC: 50 µg/mL (≈ 267 µM)
[2]; [14]
  MIC: 30 µg/mL (≈ 160 µM)
[3]; [15]
  MIC: 150 µg/mL (≈ 801 µM)
[3]; [16]
  MIC: 75 µg/mL (≈ 400 µM)
[4]; [17]
  MIC: 500 µg/mL (≈ 2670 µM)
[4]; [18]
  MIC: 200 µg/mL (≈ 1070 µM)

## CCCCCCCCCCCC(O)CN (stereo not shown) [Compound 8, 2-hydroxy-1-amino tridecane]
[1]; [11]
  MIC: 40 µg/mL (≈ 186 µM)
[1]; [12]
  MIC: 20 µg/mL (≈ 92.9 µM)
[2]; [13]
  MIC: 30 µg/mL (≈ 139 µM)
[2]; [14]
  MIC: 3 µg/mL (≈ 13.9 µM)
[3]; [15]
  MIC: 75 µg/mL (≈ 348 µM)
[3]; [16]
  MIC: 10 µg/mL (≈ 46.4 µM)
[4]; [17]
  MIC: > 1500 µg/mL
[4]; [18]
  MIC: > 1000 µg/mL

## CCCCCCCCCCCCCCOCC(O)CN (stereo not shown) [Compound 9, 3-tetradecyloxy-2-hydroxyamino-1-propane hydrochloride]
[1]; [11]
  MIC: 50 µg/mL
[1]; [12]
  MIC: 10 µg/mL
[2]; [13]
  MIC: 30 µg/mL
[2]; [14]
  MIC: 7 µg/mL
[3]; [15]
  MIC: > 1000 µg/mL
[3]; [16]
  MIC: > 500 µg/mL
[4]; [17]
  MIC: 2500 µg/mL
[4]; [18]
  MIC: 1250 µg/mL
[5]
  solubility in water: soluble in water

## CCCCCCCCCCCCCCCCCCOCC(O)CN.Cl (stereo not shown) [Compound 10, 3-octadecyloxy-2-hydroxy-1-aminopropane hydrochloride]
[1]; [11]
  MIC: > 500 µg/mL
[1]; [12]
  MIC: > 300 µg/mL
[2]; [13]
  MIC: > 500 µg/mL
[2]; [14]
  MIC: > 300 µg/mL
[3]; [15]
  MIC: > 1000 µg/mL
[3]; [16]
  MIC: > 500 µg/mL
[4]; [17]
  MIC: > 2500 µg/mL
[4]; [18]
  MIC: 1300 µg/mL

## COCC(O)CN (stereo not shown) [Compound 11]
[1]; [11]
  MIC: > 500 µg/mL
[1]; [12]
  MIC: > 300 µg/mL
[2]; [13]
  MIC: > 500 µg/mL
[2]; [14]
  MIC: > 300 µg/mL
[3]; [15]
  MIC: > 1000 µg/mL
[3]; [16]
  MIC: > 500 µg/mL
[4]; [17]
  MIC: > 2500 µg/mL
[4]; [18]
  MIC: > 1300 µg/mL

## CCOCC(O)CN.Cl (stereo not shown) [Compound 12, 3-ethoxy-2-hydroxy-1-aminopropane hydrochloride]
[1]; [11]
  MIC: > 500 µg/mL
[1]; [12]
  MIC: > 300 µg/mL
[2]; [13]
  MIC: > 500 µg/mL
[2]; [14]
  MIC: > 300 µg/mL
[3]; [15]
  MIC: > 1000 µg/mL
[3]; [16]
  MIC: > 500 µg/mL
[4]; [17]
  MIC: > 2500 µg/mL
[4]; [18]
  MIC: > 1300 µg/mL

## CCCCCCCCCCOCC(O)CN (stereo not shown) [Compound 13, 3-decyloxy-2-hydroxy-1-aminopropane]
[1]; [11]
  MIC: 80 µg/mL (≈ 346 µM)
[1]; [12]
  MIC: 40 µg/mL (≈ 173 µM)
[2]; [13]
  MIC: 40 µg/mL (≈ 173 µM)
[2]; [14]
  MIC: 20 µg/mL (≈ 86.4 µM)
[3]; [15]
  MIC: 250 µg/mL (≈ 1080 µM)
[3]; [16]
  MIC: 50 µg/mL (≈ 216 µM)
[4]; [17]
  MIC: 400 µg/mL (≈ 1730 µM)
[4]; [18]
  MIC: 150 µg/mL (≈ 648 µM)

## CCCCCCCCCCSCC(O)CN (stereo not shown) [Compound 14, 3-decanethio-2-hydroxy-1-aminopropane hydrochloride]
[1]; [11]
  MIC: 70 µg/mL
[1]; [12]
  MIC: 10 µg/mL
[2]; [13]
  MIC: 30 µg/mL
[2]; [14]
  MIC: 5 µg/mL
[3]; [15]
  MIC: 250 µg/mL
[3]; [16]
  MIC: 50 µg/mL
[4]; [17]
  MIC: 600 µg/mL
[4]; [18]
  MIC: 200 µg/mL
[5]; alcohol
  solubility in alcohol: soluble in alcohol

## benzalconium chloride [T, reference compound]
[1]; [19]
  MIC: 12 μg/cc
[1]; [20]
  MIC: 1.5 μg/cc
[1]; [21]
  M.I.C.: 10 μg/cc and 5 μg/cc
[1]; [22]
  M.I.C.: 1.5 μg/cc and 1 μg/cc
[2]; [19]
  MIC: 7.5 μg/cc
[2]; [20]
  MIC: 2.5 μg/cc
[2]; [21]
  M.I.C.: 2.5 μg/cc and 4 μg/cc
[2]; [22]
  M.I.C.: 1 μg/cc and 2 μg/cc and 1.5 μg/cc
[3]; [19]
  MIC: 300 μg/cc
[3]; [20]
  MIC: 125 μg/cc
[3]; [21]
  M.I.C.: 200 μg/cc and 250 μg/cc and 300 μg/cc
[3]; [22]
  M.I.C.: 125 μg/cc and 150 μg/cc
[4]; [19]
  MIC: 850 μg/cc
[4]; [20]
  MIC: 600 μg/cc
[4]; [21]
  M.I.C.: 750 μg/cc and 850 μg/cc and 1200 μg/cc and 1000 μg/cc
[4]; [22]
  M.I.C.: 500 μg/cc and 600 μg/cc and 700 μg/cc
[6]; with 20% of serum
  MIC: 75 μg/cc
[6]; without serum
  MIC: 35 μg/cc
[7]; with 20% of serum
  MIC: 30 μg/cc
[7]; without serum
  MIC: 10 μg/cc
[8]; with 20% of serum
  MIC: 75 μg/cc
[8]; without serum
  MIC: 35 μg/cc
[9]; with 20% of serum
  MIC: 75 μg/cc
[9]; without serum
  MIC: 20 μg/cc
[10]; with 20% of serum
  MIC: 150 μg/cc
[10]; without serum
  MIC: 75 μg/cc
